Legend:
Format in all cases: cell-based
dopamine transporter = target: T1, dopamine transporter (Homo sapiens, UniProt Q01959); test: Dopamine reuptake inhibition in transporter-transfected HEK-293 cells ([3H]-DA); settings: for Triple reuptake inhibition (Ratio %) DAT: compound 1 μM, 20-30 nM [3H]-DA, relative to control without compound (100%), lower = more inhibition; for IC50: concentration at which Ratio % is 50%, 6 concentrations 1 nM to 1 μM, read-out: Triple reuptake inhibition (IC50, μM) DAT
T1 construct: expressed in transfected cells; host or cells: HEK-293
T1 sequence (Q01959 whole entry): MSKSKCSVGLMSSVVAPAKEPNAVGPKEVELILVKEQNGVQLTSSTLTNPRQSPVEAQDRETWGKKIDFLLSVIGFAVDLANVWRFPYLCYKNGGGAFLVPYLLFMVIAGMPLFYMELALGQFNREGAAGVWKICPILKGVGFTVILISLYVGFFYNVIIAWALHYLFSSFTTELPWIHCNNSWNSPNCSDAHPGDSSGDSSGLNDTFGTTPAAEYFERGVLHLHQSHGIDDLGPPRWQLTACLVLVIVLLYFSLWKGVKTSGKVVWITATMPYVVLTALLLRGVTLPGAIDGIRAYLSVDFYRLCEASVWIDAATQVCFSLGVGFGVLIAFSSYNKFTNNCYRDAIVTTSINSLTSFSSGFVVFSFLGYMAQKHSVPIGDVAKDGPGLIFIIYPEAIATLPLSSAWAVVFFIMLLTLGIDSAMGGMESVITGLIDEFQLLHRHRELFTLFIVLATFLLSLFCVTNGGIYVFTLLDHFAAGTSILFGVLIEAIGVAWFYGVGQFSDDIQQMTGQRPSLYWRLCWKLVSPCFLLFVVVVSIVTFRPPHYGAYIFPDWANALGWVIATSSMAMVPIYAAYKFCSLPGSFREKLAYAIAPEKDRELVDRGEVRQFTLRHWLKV
Protocol: (§1) To evaluate the reuptake inhibitory effect on dopamine, the dopamine transporter cDNA was transfected using the HEK-293 cell line, and then sub-seeded in a 24 well plate the next day. After removing the medium, each compound of the Examples or Comparative Examples diluted to 1 μM in uptake buffer was added to a concentration of 200 μl/well and cultured at 37° C. for 15 minutes. 100 μl of uptake buffer containing 20-30 nM [3H]-DA was added and cultured at 37° C. for 5 minutes. The reaction solution was quickly removed and washed three times with 1 ml ice-cold uptake buffer. After dissolving the resultant in 1% SDS (0.5 ml), the degree of binding of radioisotope-labeled dopamine to the transporter was measured.
(§2) In addition, when evaluating the reuptake inhibitory effect on dopamine, norepinephrine, and serotonin, the same method was performed without treating each compound of the Examples or Comparative Examples as a control, the degree of binding of radioisotope-labeled dopamine, norepinephrine, and serotonin to the transporter was measured, and by using this as a standard (100%), the triple reuptake inhibitory effect was evaluated as a relative ratio (Ratio %). That is, in the control group, the binding of dopamine, norepinephrine, and serotonin to transporters is not inhibited, but when each compound of the Examples is treated and thus the binding is inhibited, the Patio % value decreases.
(§3) Meanwhile, the Patio % values were compared, and in the case of the compounds of Examples 6, 9, 10, 19, 20, 22, 24, 28, 30, 31, 32, 33, 35, 41, 42, 48, 49, 51, 55, 56, 59, 61, 63, 64, 65, 66, 74 and 76 with excellent reuptake inhibitory effects on dopamine, norepinephrine and serotonin, the concentration at which the Ratio % is 50% was calculated using a total of 6 concentrations (1 nM, 5 nM, 10 nM, 50 nM, 100 nM, and 1 μM) and expressed as IC50. In addition, in the case of the compound of Comparative Example 1, IC50 was obtained by the same method as the Example Compounds.

serotonin transporter = target: T2, serotonin transporter (Homo sapiens, UniProt P31645); test: Serotonin reuptake inhibition in transporter-transfected HEK-293 cells ([3H]-5-HT); settings: for Triple reuptake inhibition (Ratio %) SERT: compound 1 μM, [3H]-5-HT, relative to control without compound (100%), lower = more inhibition; for IC50: concentration at which Ratio % is 50%, 6 concentrations 1 nM to 1 μM, read-out: Triple reuptake inhibition (IC50, μM) SERT
T2 construct: expressed in transfected cells; host or cells: HEK-293
T2 sequence (P31645 whole entry): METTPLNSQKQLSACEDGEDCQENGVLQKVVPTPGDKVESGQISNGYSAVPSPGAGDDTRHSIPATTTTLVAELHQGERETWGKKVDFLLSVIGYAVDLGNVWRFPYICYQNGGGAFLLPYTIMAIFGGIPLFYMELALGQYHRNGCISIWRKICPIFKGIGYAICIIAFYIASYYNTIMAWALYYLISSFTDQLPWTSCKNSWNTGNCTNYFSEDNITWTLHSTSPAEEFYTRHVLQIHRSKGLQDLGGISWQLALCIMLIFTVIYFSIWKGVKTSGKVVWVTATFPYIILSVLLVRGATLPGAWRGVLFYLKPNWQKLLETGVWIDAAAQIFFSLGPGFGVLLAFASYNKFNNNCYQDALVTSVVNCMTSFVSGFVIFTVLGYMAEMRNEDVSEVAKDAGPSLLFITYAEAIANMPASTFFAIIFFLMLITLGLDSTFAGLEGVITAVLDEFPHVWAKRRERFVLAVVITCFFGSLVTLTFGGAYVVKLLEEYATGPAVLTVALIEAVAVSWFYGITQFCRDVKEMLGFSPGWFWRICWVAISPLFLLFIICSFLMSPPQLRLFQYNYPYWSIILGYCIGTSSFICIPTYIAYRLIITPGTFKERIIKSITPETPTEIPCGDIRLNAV
Protocol: as §1
(§4) For norepinephrine (NE) and serotonin (5-HT), the degree of binding of radioisotope-labeled norepinephrine or serotonin to the transporter was measured in the same manner as above, except that cells transfected with NE or 5-HT transporter cDNA were used and [3H]-NE or [3H]-5-HT was used as a substrate.
as §2
In addition, in the case of the compound of Comparative Example 1, IC50 was obtained by the same method as the Example Compounds.

[1] = target: T3, norepinephrine transporter (Homo sapiens, UniProt P23975); test: Norepinephrine reuptake inhibition in transporter-transfected HEK-293 cells ([3H]-NE); settings: for Triple reuptake inhibition (Ratio %) NET: compound 1 μM, [3H]-NE, relative to control without compound (100%), lower = more inhibition; for IC50: concentration at which Ratio % is 50%, 6 concentrations 1 nM to 1 μM, read-out: Triple reuptake inhibition (IC50, μM) NET
T3 construct: expressed in transfected cells; host or cells: HEK-293
T3 sequence (P23975 whole entry, species assumed): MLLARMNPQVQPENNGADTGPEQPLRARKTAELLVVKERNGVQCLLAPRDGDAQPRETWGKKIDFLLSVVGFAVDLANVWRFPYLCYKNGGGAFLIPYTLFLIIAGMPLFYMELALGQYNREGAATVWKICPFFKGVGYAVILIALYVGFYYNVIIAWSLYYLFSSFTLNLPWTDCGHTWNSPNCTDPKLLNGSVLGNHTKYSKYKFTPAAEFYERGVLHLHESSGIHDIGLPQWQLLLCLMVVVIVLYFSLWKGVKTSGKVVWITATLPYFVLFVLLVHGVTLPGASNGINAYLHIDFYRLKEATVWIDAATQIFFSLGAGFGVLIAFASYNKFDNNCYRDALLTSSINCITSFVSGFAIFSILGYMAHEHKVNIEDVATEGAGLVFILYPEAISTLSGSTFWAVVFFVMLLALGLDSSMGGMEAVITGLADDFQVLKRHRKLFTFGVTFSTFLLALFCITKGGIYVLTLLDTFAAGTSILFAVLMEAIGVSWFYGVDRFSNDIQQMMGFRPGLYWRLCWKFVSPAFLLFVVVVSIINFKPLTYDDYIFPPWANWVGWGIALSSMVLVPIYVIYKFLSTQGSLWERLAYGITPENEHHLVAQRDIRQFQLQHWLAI
Protocol: as §1, §4, §2, §3

| SMILES | Triple reuptake inhibition (Ratio %) DAT (dopamine transporter) [%] | Triple reuptake inhibition (Ratio %) SERT (serotonin transporter) [%] | Triple reuptake inhibition (Ratio %) NET [1] [%] | IC50 (dopamine transporter) [µM] | IC50 [1] [µM] | IC50 (serotonin transporter) [µM] |
| --- | --- | --- | --- | --- | --- | --- |
| O=C(NCCN1CCC(Cc2ccc(Cl)c(Cl)c2)CC1)c1ccc(Cl)c(Cl)c1 [Example 17, 3,4-dichloro-N-(2-(4-(3,4-dichlorobenzyl)piperidin-1-yl)ethyl)benzamide] | 66.05 | 4.81 | 88.67 | – | – | – |
| CN(CCNC(=O)c1cc2ccccc2[nH]1)Cc1ccc2ccccc2c1 [Example 68, N-(2-(methyl(napthalen-2-ylmethyl)amino)ethyl)-1H-indol-2-carboxamide] | 90.63 | 87.07 | 100.99 | – | – | – |
| O=C(NCCN1CCN(Cc2ccc(Cl)c(Cl)c2)CC1)c1ccc(Cl)c(Cl)c1 [Example 11, 3,4-dichloro-N-(2-(4-(3,4-dichlorobenzyl)piperazin-1-yl)ethyl)benzamide] | 75.29 | 63.40 | 82.25 | – | – | – |
| O=C(NC1(CN2CCC(Cc3ccccc3)CC2)CC1)c1cc2ccccc2[nH]1 [Example 53, N-(1-((4-benzylpiperidin-1-yl)methyl)cyclopropyl)-1H-indol-2-carboxamide] | 86.48 | 108.82 | 69.01 | – | – | – |
| O=C(NCCn1ccc(-c2ccc(F)cn2)n1)c1ccc2cc(Br)ccc2c1 [Example 8, 6-bromo-N-(2-(3-(5-fluoropyridin-2-yl)-1H-pyrazol-1-yl)ethyl)-2-naphthamide] | 97.06 | 86.83 | 95.78 | – | – | – |
| O=C(NCCN1CCN(c2cccc(Cl)c2Cl)CC1)c1ccc2cc(Br)ccc2c1 [Example 4, 6-bromo-N-(2-(4-(2,3-dichlorophenyl)piperazin-1-yl)ethyl)-2-naphthamide] | 108.51 | 73.53 | 121.24 | – | – | – |
| O=C(N[C@@H]1CC[C@@H](c2ccc(Cl)c(Cl)c2)c2ccccc21)c1cc2ccccc2[nH]1 [Example 62, N-((1R,4S)-4-(3,4-dichlorophenyl)-1,2,3,4-tetrahydronaphthalen-1-yl)-1H-indol-2-carboxamide] | 79.43 | 94.51 | 144.33 | – | – | – |
| O=C(NCCNCc1ccc2ccccc2c1)c1cc2ccccc2[nH]1 [Example 54, N-(2-((naphthalen-2-ylmethyl)amino)ethyl)-1H-indol-2-carboxamide] | 79.32 | 84.69 | 92.95 | – | – | – |
| O=C(NCCN1CCC(Cc2ccccc2)CC1)c1nc2cc(F)ccc2s1 [Example 60, N-(2-(4-benzylpiperidin-1-yl)ethyl)-5-fluorobenzo(d)thiazol-2-carboxamide] | 68.95 | 53.40 | 50.81 | – | – | – |
| O=C(NCCN1CCC(Cc2ccccc2)CC1)c1cc2cc(Cl)ccc2[nH]1 [Example 31, N-(2-(4-benzylpiperidin-1-yl)ethyl)-5-chloro-1H-indol-2-carboxamide] | 31.52 | 58.09 | 72.60 | 1.73 | 4.35 | – |
| O=C(NCCN1CCC(Cc2ccccc2)CC1)c1ccc(Cl)c(Cl)c1 [Example 18, N-(2-(4-benzylpiperidin-1-yl)ethyl)-3,4-dichlorobenzamide] | 68.93 | 47.45 | 67.88 | – | – | – |
| O=C(NCCN1CCC(Cc2ccc(Cl)c(Cl)c2)CC1)c1cc2ccccc2[nH]1 [Example 19, N-(2-(4-(3,4-dichlorobenzyl)piperidin-1-yl)ethyl)-1H-indol-2-carboxamide] | 36.79 | 40.39 | 94.93 | 0.59 | > 10 | 0.51 |
| O=C(NCCN1CCC(Cc2ccc(F)c(F)c2)CC1)c1cc2ccccc2[nH]1 [Example 27, N-(2-(4-(3,4-difluorobenzyl)piperidin-1-yl)ethyl)-1H-indol-2-carboxamide] | 71.77 | 75.39 | 69.72 | – | – | – |
| Cn1c(C(=O)NCCN2CCC(Cc3ccccc3)CC2)cc2ccccc21 [Example 74, N-(2-(4-benzylpiperidin-1-yl)ethyl)-1-methyl-1H-indol-2-carboxamide] | 39.87 | 67.26 | 28.47 | 0.509 | 0.337 | 3.41 |
| O=C(NCCN1CCN(Cc2ccc(F)c(F)c2)CC1)c1ccc(Cl)c(Cl)c1 [Example 16, 3,4-dichloro-N-(2-(4-(3,4-difluorobenzyl)piperazin-1-yl)ethyl)benzamide] | 85.54 | 113.34 | 82.44 | – | – | – |
| O=C(NCCN1CCC(Cc2ccc(F)c(F)c2)CC1)c1ccc2cc(Br)ccc2c1 [Example 6, 6-bromo-N-(2-(4-(3,4-difluorobenzyl)piperidin-1-yl)ethyl)-2-naphthamide] | 57.66 | 73.84 | 34.16 | 3.93 | – | 14 |
| O=C(NCCN1CCN(Cc2ccccc2)CC1)c1ccc2cc(Br)ccc2c1 [Example 5, N-(2-(4-benzylpiperazin-1-yl)ethyl)-6-bromo-2-naphthamide] | 96.26 | 76.90 | 94.24 | – | – | – |
| O=C(NCCN1CCN(c2cccc(C(F)(F)F)c2)CC1)c1ccc(Cl)c(Cl)c1 [Example 12, 3,4-dichloro-N-(2-(4-(3-(trifluoromethyl)phenyl)piperazin-1-yl)ethyl)benzamide] | 103.97 | 93.46 | 94.42 | – | – | – |
| COc1cc2cc(C(=O)NCCN3CCC(Cc4ccc(Cl)c(Cl)c4)CC3)[nH]c2cc1OC [Example 48] | 2.88 | 5.27 | 9.75 | 0.028 | 0.398 | 0.123 |
| O=C(NC1CCC(Cc2ccccc2)CC1)c1cc2ccccc2[nH]1 (stereo not shown) [Example 44, N-(4-benzylcyclohexyl)-1H-indol-2-carboxamide] | 73.05 | 94.19 | 85.48 | – | – | – |
| O=C(NCCN1CCC(Cc2ccccc2)CC1)c1cc2c(Cl)cc(Cl)cc2[nH]1 [Example 39, N-(2-(4-benzylpiperidin-1-yl)ethyl)-4,6-dichloro-1H-indol-2-carboxamide] | 40.9 | 76.27 | 63.99 | – | – | – |
| CCCCOc1ccc(C(=O)NCCN2CCC(c3c[nH]c4ccccc34)CC2)cc1 [Example 72, N-(2-(4-(1H-indol-3-yl)piperidin-1-yl)ethyl)-4-butoxybenzamide] | 58.16 | 17.44 | 97.62 | – | – | – |
| O=C(NCCN1CCC(Cc2ccccc2)CC1)c1nc2cc(O)ccc2[nH]1 [Example 64, N-(2-(4-benzylpiperidin-1-yl)ethyl)-5-hydroxy-1H-benzo[d]imidazol-2-carboxamide] | 22.84 | 47.72 | 57.21 | 0.362 | 0.543 | 0.237 |

Reference: US20240018119A1, “CARBOXAMIDE DERIVATIVE AND PHARMACEUTICAL COMPOSITION COMPRISING SAME AS ACTIVE INGREDIENT FOR PREVENTING OR TREATING MENTAL ILLNESS” (DAEGU-GYEONGBUK MEDICAL INNOVATION FOUNDATION, priority 2020, published 2024)
